# Calls of active or inactive are those of the source.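 How the source made its calls: active means EC50 under 50 µM in a live-cell viability test; inactive means the rest.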
# System: HeLa proliferation, XTT absorbance
# Test: HeLa cell growth inhibition, dose response, selectivity assay for AHD inhibitor project, XTT absorbance (AID 1794806)
row,SMILES,EC50
1,O=C(NCC1CCNCC1)c1cc2cc(-c3ccc(N4CCCCC4)cc3)ccc2s1,25 µM
2,NCc1ccc(-c2ccc3cc(C(=O)NCC4CCNCC4)oc3c2)cc1,> 51 µM (inactive)
3,O=C(NCC1CCNCC1)c1cc2ccc(-c3ccc(N4CCCC4)cc3)cc2s1,50 µM
4,NC(=O)c1ccc(-c2ccc3cc(C(=O)NCC4CCNCC4)sc3c2)cc1,> 51 µM (inactive)
5,O=C(NCC1CCNCC1)c1cc2cc(-c3ccc(N4CCCCC4)cc3)ccc2[nH]1,> 51 µM (inactive)
6,O=C(NCC1CCNCC1)c1cc2cc(-c3cn[nH]c3)ccc2[nH]1,> 51 µM (inactive)
7,O=C(NCC1CCNCC1)c1c[nH]c2cc(-c3ccc(N4CCCC4)cc3)ccc12,> 51 µM (inactive)
8,O=C(NCC1CCNCC1)c1coc2cc(-c3ccc(N4CCCCC4)cc3)ccc12,50 µM
9,O=C(NCC1CCNCC1)c1c[nH]c2cc(-c3ccc(N4CCCCC4)cc3)ccc12,> 51 µM (inactive)
10,O=C(NCC1CCNCC1)c1cc2ccc(-c3ccc(N4CCCCC4)cc3)cc2s1,50 µM

# From PubChem BioAssay AID1794806 (Yongcheng Song lab at Baylor College of Medicine, 2022)
